Article doi:10.1101/2025.03.03.641193, “Trihydroxybenzaldoximes are redox cycling inhibitors of ThDP-dependent DXP synthase” (bioRxiv, 2025)

Columns and labels:
EcDXPS = target: T1, EcDXPS (Escherichia coli, UniProt P77488); assay: DXPS-IspC coupled assay, aerobic, WT EcDXPS; type: biochemical, E. coli
T1 construct: made in house
Protocol: (§1) Inhibitory activity of compounds against DXPS were monitored via a continuous spectrophotometric coupled assay with DXPS and IspC as previously described.[41],[42] Briefly, Reaction mixtures containing HEPES (100 mM, pH 8.0), MgCl2 (2 mM), NaCl (5 mM), ThDP (1 mM), BSA (1 mg/mL), DXPS (125–500 nM), IspC (1.7 μM), NADPH (160 μM), DMSO (5%, v/v), and inhibitor (0–200 μM) were preincubated at 25 °C (or chamber temperature 25–30 °C) for 5 min. Enzymatic reactions were initiated via the addition of 20 μL of a 10x substrate mix for a final well volume of 200 μL. Reactions were performed in triplicate unless otherwise noted. See the following sections for details and modifications.
When varying pyruvate (0–500 μM), GAP was maintained at 50 μM (3 mM for R478A). When varying GAP (0–500 μM), pyruvate was maintained at 500 μM. The following [DXPS] were used when varying 1: WT EcDXPS, R478A, H431A, D427A (200 nM), R99A (500 nM), WT DrDXPS, WT PaDXPS (150 nM). […] Reactions were incubated and initiated as described above. Immediately following initiation, NADPH depletion was monitored at 340 nm at 25 °C for 7–10 min with a 14–20 second time interval. Initial velocities of DXP formation were determined from the linear portion of the NADPH decay. […] Initial velocities were plotted vs. substrate concentration, and the data were fit to equation 1 (mixed model), 2 (competitive), or 3 (uncompetitive) based on the calculated α value and goodness of fit in GraphPad Prism. Reported standard errors of the mean for Kis are calculated from three replicates.

R99A DXPS = target: T2, R99A DXPS (Escherichia coli, UniProt P77488, R99A); assay: DXPS-IspC coupled assay, R99A variant; type: biochemical, E. coli
T2 construct: made in house
Protocol: (§2) To determine the role of active site network residues in the activity of oximes, inhibitory activity of 1 was assessed against EcD427A, EcH431A, and EcR99A by the DXPS-IspC coupled assay[41],[42] (Fig 4B, S3, Table S1). Ki determination was performed by varying [pyruvate] in order to assess the impact of residue substitutions on the uncompetitive mode of inhibition. […] (8.7 ± 1.2 μM, Fig S3, Table S1).
as §1
(§3) When varying pyruvate (0–500 μM), GAP was maintained at 50 μM (3 mM for R478A). When varying GAP (0–500 μM), pyruvate was maintained at 500 μM. The following [DXPS] were used when varying 1: WT EcDXPS, R478A, H431A, D427A (200 nM), R99A (500 nM), WT DrDXPS, WT PaDXPS (150 nM). Analogs 3 and 4 were tested using WT EcDXPS (150 nM). Reactions were incubated and initiated as described above. Immediately following initiation, NADPH depletion was monitored at 340 nm at 25 °C for 7–10 min with a 14–20 second time interval. Initial velocities of DXP formation were determined from the linear portion of the NADPH decay. Initial velocities were arithmetically corrected for background for compound 4. Initial velocities were plotted vs. substrate concentration, and the data were fit to equation 1 (mixed model), 2 (competitive), or 3 (uncompetitive) based on the calculated α value and goodness of fit in GraphPad Prism. Reported standard errors of the mean for Kis are calculated from three replicates.

H431A DXPS = target: T3, H431A DXPS (Escherichia coli, UniProt P77488, H431A); assay: DXPS-IspC coupled assay, H431A variant; type: biochemical, E. coli
T3 construct: made in house
Protocol: as §2, §1, §3

WT EcDXPS = target: T4, WT EcDXPS (Escherichia coli, UniProt P77488); assay: Anaerobic apparent Ki, DXPS-IspC coupled assay; type: biochemical, E. coli
T4 construct: made in house
Protocol: as §1
Reaction components were brought into the anaerobic chamber and allowed to deoxygenate for ~2 hours. WT EcDXPS was used at 125 nM. When varying pyruvate (0–500 μM), GAP was maintained at 50 μM. When varying GAP (0–500 μM), pyruvate was maintained at 500 μM. Reactions were incubated and initiated as described above. Immediately following initiation, NADPH depletion was monitored at 340 nm at chamber temperature (25–30 °C) for 5 min with a ~17 second time interval. Initial velocities of DXP formation were determined as above, plotted vs. substrate concentration, and the data were fit to either equation 2, or 3 based on the calculated α value and goodness of fit in GraphPad Prism. Reported standard errors of the mean for Kis are calculated from three replicates.

[1] = NMR detection of redox state of 1; type: physicochemical
Protocol: NMR experiments were performed as previously described[16],[24] with the following modifications. Experiments were performed aerobically unless otherwise noted. Anaerobic experiments were performed in the anaerobic chamber up to the point of transfer to NMR tubes which were capped with rubber septa to exclude oxygen once removed from the chamber. […] Solutions were also prepared aerobically in the presence of ascorbate (5 mM) and CAT (0.25 mg/mL). Oxime 1 (500 μM) was then added and solutions were incubated at 4 °C for 20 min. After incubation, 600 μL of each solution were transferred to labeled NMR tubes. 1D ^1H-NMR and 1D ^1H detected H{^13C} and H3{^13C} spectra via a proton multiplicity filter, which selects for ^13C nuclei attached to an odd number of protons, were acquired on a Bruker Avance 600 MHz or a Bruker Avance NEO 600 MHz spectrometer (HEPES anaerobic and Tris anaerobic) equipped with a TCI cryogenic probe equipped with z-gradients with a cryo-cooled ^13C preamplifier, resulting in high sensitivity for ^13C detection. Spectra were acquired at 600 MHz (^1H) and 150 MHz (^13C), at 25 °C utilizing a 90° ^1H excitation pulse (optimized for maximum signal-to-noise per unit time), 128 scans/FID (^1H-NMR), 200 ms acquisition time/FID, and a 3s relaxation day between successive scans, or 64 scans/FID (^1H detected H{^13C} and H3{^13C}), 200 ms acquisition time/FID, and a 5s relaxation day between successive scans.

ON=Cc1cc(O)c(O)cc1O [compound 1, 2,4,5-trihydroxybenzaldoxime]
%Inhibition at 200 μM 1 (EcDXPS; WT DXPS, HEPES pH 8, 200 μM): ~ 79% | MOI varying D-GAP (EcDXPS; WT EcDXPS, aerobic): competitive | MOI varying pyruvate (EcDXPS; WT EcDXPS, aerobic): uncompetitive | inhibition at 200 µM (EcDXPS; pH 8, read-out: %Inhibition at 200 μM 1, WT DXPS, HEPES pH 8, 200 μM): 79.2 ± 0.2% | MOI varying D-GAP (R99A DXPS; EcR99A): competitive | MOI varying pyruvate (R99A DXPS; EcR99A): uncompetitive | Ki (R99A DXPS; Ki Vary Pyruvate, R99A, pyruvate 0–500 μM): 30 ± 1 µM | Ki (R99A DXPS; Ki varying [D-GAP], R99A, GAP 0–500 μM, pyruvate 500 μM): 8.7 ± 1.2 µM | Ki/Ki^wt (R99A DXPS; R99A, vary pyruvate, fold reduction in potency vs WT): ~ 6 | fold reduction in potency relative to WT (R99A DXPS; R99A, varying [D-GAP]): 4 fold | Ki (H431A DXPS): 1.1 ± 0.1 µM | MOI varying pyruvate (H431A DXPS; EcH431A): uncompetitive | fold lower Ki relative to WT (H431A DXPS; H431A, vary pyruvate): ~ 4 fold | Ki (+O2)/ Ki (-O2) (WT EcDXPS; - O2): ~ 10 | MOI varying D-GAP (WT EcDXPS; anaerobic, WT EcDXPS): competitive | MOI varying pyruvate (WT EcDXPS; anaerobic, WT EcDXPS): uncompetitive | redox state by 1H-NMR ([1]; 500 μM, HEPES 50 mM pH 8, aerobic): partially | redox state by 1H-NMR ([1]; 500 μM, HEPES pH 8, aerobic, ascorbate 5 mM): reduced | redox state by 1H-NMR ([1]; 500 μM, HEPES pH 8, aerobic, catalase 0.25 mg/mL): mostly oxidized | redox state by 1H-NMR ([1]; 500 μM, Tris 50 mM pH 8, aerobic): mostly | redox state by 1H-NMR ([1]; 500 μM, acidic pH (MES pH 6.2), aerobic): mostly reduced | redox state by 1H-NMR ([1]; 500 μM, neutral and basic pH (phosphate pH 7, CHES pH 9), aerobic): oxidized | redox state by 1H-NMR ([1]; 12.5 mM, HEPES 100 mM pH 8, aerobic): primarily in the reduced state | redox state by 1H-NMR ([1]; anaerobic conditions): primarily in its reduced form
